Patent publication US20250144067A1, “PERSONALIZED STARVATION THERAPY FOR CANCER” (Faeth Therapeutics, Inc., priority 2021, published 2025)
Counter-ions that a name gives are not always drawn. Like-named read-outs stand apart in the source and are kept apart here.

Key:
[1] = test system: NCI-H292 lung cancer cells; test: FDA drug screening, complete media vs cholesterol-free media without statin (TABLE 1); format: cell-based, human
[2] = test system: NCI-H292 lung cancer cells; test: FDA drug screening, complete media vs cholesterol-free media with simvastatin (TABLE 2); format: cell-based, human
[3] = NCI-H292 cells, cholesterol-free media without statin, FDA drug library screen
[4] = NCI-H292 cells, complete media, FDA drug library screen
[5] = complete vs cholesterol-free media, >0 enhanced anti-cancer activity, about 0 neutral, <0 antagonist
[6] = NCI-H292 cells, cholesterol-free media with simvastatin 0.04 μM, cell growth value in FDA drug screen
[7] = NCI-H292 cells, complete media, cell growth value in FDA drug screen
[8] = complete media minus cholesterol-free media + simvastatin, >0 enhanced anti-cancer activity, about 0 neutral, <0 antagonist
[9] = NCI-H292 cells, cholesterol-free media without statin
[10] = NCI-H292 cells, FDA drug library screen, cholesterol-free media with simvastatin 0.04 μM
[11] = NCI-H292 cells, FDA drug library screen, complete media
[12] = Complete minus Cholesterol-free, >0 enhanced anti-cancer activity, about 0 neutral, <0 antagonist
[13] = NCI-H292 cells, FDA library drug in cholesterol-free media with simvastatin 0.04 μM
[14] = NCI-H292 cells, FDA library drug in complete media
[15] = complete media vs cholesterol-free media + simvastatin (0.04 μM), >0 enhanced anti-cancer activity, about 0 neutral, <0 antagonist
[16] = Complete minus Cholesterol-free, greater than 0 enhanced anti-cancer activity, about 0 neutral, below 0 antagonists
[17] = NCI-H292 cells in cholesterol-free media without statin
[18] = NCI-H292 cells in complete media
[19] = NCI-H292 cells, cholesterol-free media with simvastatin 0.04 μM, FDA drug library screen (TABLE 2)
[20] = NCI-H292 cells, complete media, FDA drug library screen (TABLE 2)
[21] = complete media minus cholesterol-free media + simvastatin (0.04 μM), >0 enhanced anti-cancer activity, about 0 neutral, <0 antagonist

COc1nc2ccc(Br)cc2cc1[C@@H](c1ccccc1)[C@@](O)(CCN(C)C)c1cccc2ccccc12 [Bedaquiline]
Cholesterol-free [1, 3]: 0.6087 | Complete [1, 4]: 1.472 | Difference [1, 5]: 0.86 | Cholesterol-free media + simvastatin (0.04 μM) [2, 6]: 1.492 | Complete Media [2, 7]: 1.59 | Difference [2, 8]: 0.10

CN1CC[C@@H](NC(=O)Nc2ccc(C#N)cc2)C[C@@H]1c1nc2ccccc2[nH]1 [Glasdegib]
Cholesterol-free [1, 9]: 1.398 | Complete ([1]; NCI-H292 cells, complete media): 0.9821 | Difference ([1]; complete vs cholesterol-free media, greater than 0 enhanced anti-cancer activity, about 0 neutral, below 0 antagonists): −0.42 | Cholesterol-free media + simvastatin (0.04 μM) [2, 10]: 0.7992 | Complete Media [2, 11]: 0.9809 | Difference [2, 8]: 0.18

O=C(O)c1ccccc1 [Benzoic acid]
Cholesterol-free [1]: 1.119 | Complete [1]: 1.063 | Difference [1]: −0.06 | Cholesterol-free media + simvastatin (0.04 μM) [2]: 1.277 | Difference [2]: −0.11

CNCc1ccc(-c2[nH]c3cc(F)cc4c3c2CCNC4=O)cc1 [Rucaparib]
Difference [1, 12]: −0.02 | Cholesterol-free [1, 3]: 0.9041 | Complete [1, 4]: 0.881 | Cholesterol-free media + simvastatin (0.04 μM) [2, 13]: 1.04 | Complete Media [2, 14]: 0.7044 | Difference [2, 15]: −0.34

CC[C@@]1(O)C(=O)OCc2c1cc1n(c2=O)Cc2cc3ccccc3nc2-1 [Camptothecin]
Difference ([1]; Complete minus Cholesterol-free, […]): −0.01 | Cholesterol-free [1, 3]: 0.0145 | Complete [1, 4]: 0.005875 | Cholesterol-free media + simvastatin (0.04 μM) [2, 10]: −0.11 | Complete Media [2, 11]: 0.07415 | Difference ([2]; complete media minus cholesterol-free media + simvastatin, […]): 0.18

O=C(O)c1ccc(NC(=O)[C@H](Cc2ccc(O)cc2)NC(=O)c2ccccc2)cc1 [Bentiromide]
Difference [1, 12]: −0.23 | Cholesterol-free [1, 9]: 1.105 | Complete ([1]; NCI-H292 cells, complete media): 0.8729 | Cholesterol-free media + simvastatin (0.04 μM) ([2]; NCI-H292 cells, drug in cholesterol-free media with simvastatin 0.04 μM): 0.9161 | Complete Media ([2]; NCI-H292 cells, drug in complete media): 0.7117 | Difference [2, 15]: −0.20

NC(=O)c1cccc2cn(-c3ccc([C@@H]4CCCNC4)cc3)nc12 [Niraparib (hydrochloride)]
Difference [1, 16]: −0.48 | Cholesterol-free [1, 17]: 1.435 | Complete [1, 18]: 0.9534 | Cholesterol-free media + simvastatin (0.04 μM) [2, 6]: 0.7422 | Complete Media [2, 7]: 0.838 | Difference [2, 8]: 0.10

N[C@@H](Cc1cc(I)c(Oc2ccc(O)c(I)c2)c(I)c1)C(=O)O [Liothyronine]
Difference [1, 12]: −0.26 | Cholesterol-free [1, 9]: 1.173 | Complete ([1]; NCI-H292 cells, complete media): 0.9078 | Cholesterol-free media + simvastatin (0.04 μM) [2, 10]: 1.186 | Complete Media [2, 11]: 1.048 | Difference [2, 15]: −0.14

O=C(O)Cc1cc(I)c(Oc2ccc(O)c(I)c2)c(I)c1 [Tiratricol]
Difference [1, 16]: −0.55 | Cholesterol-free [1, 17]: 1.869 | Complete [1, 18]: 1.318 | Cholesterol-free media + simvastatin (0.04 μM) [2, 10]: 0.7173 | Difference [2, 8]: 0.43

CC(=O)O[C@]1(C(C)=O)CC[C@H]2[C@@H]3C=C(Cl)C4=CC(=O)CC[C@]4(C)[C@H]3CC[C@@]21C [Chlormadinone acetate]
Difference [1, 16]: −0.74 | Cholesterol-free [1, 17]: 1.695 | Complete [1, 18]: 0.9505 | Cholesterol-free media + simvastatin (0.04 μM) [2, 19]: 1.079 | Complete Media [2, 20]: 1.06 | Difference [2, 21]: −0.02

COc1ccc(C(=O)N2CCCC2=O)cc1 [Aniracetam]
Cholesterol-free [1, 3]: 0.69 | Complete [1, 4]: 1.062 | Difference [1, 5]: 0.37 | Cholesterol-free media + simvastatin (0.04 μM) [2, 19]: 1.041 | Complete Media [2, 20]: 1.006 | Difference [2, 21]: −0.04

CCc1oc2ccccc2c1C(=O)c1cc(Br)c(O)c(Br)c1 [Benzbromarone]
Difference [1, 16]: −0.92 | Cholesterol-free [1, 17]: 1.902 | Complete [1, 18]: 0.9837 | Cholesterol-free media + simvastatin (0.04 μM) [2, 6]: 0.9582 | Complete Media [2, 7]: 0.9819 | Difference [2, 8]: 0.02

O=c1ccn([C@@H]2O[C@H](COP(=O)([O-])OP(=O)([O-])OP(=O)([O-])OP(=O)([O-])OC[C@H]3O[C@@H](n4ccc(=O)[nH]c4=O)[C@H](O)[C@@H]3O)[C@@H](O)[C@H]2O)c(=O)[nH]1.[Na+].[Na+].[Na+].[Na+] [Diquafosol (tetrasodium)]
Difference ([1]; Complete minus Cholesterol-free, greater than 0 enhanced anti-cancer activity, about 0 neutral, below 0 antagonist): −0.16 | Cholesterol-free ([1]; NCI-H292 cells, FDA drug library screen, cholesterol-free media without statin): 0.9096 | Complete [1, 11]: 0.7536 | Cholesterol-free media + simvastatin (0.04 μM) [2, 10]: 1.438 | Complete Media [2, 11]: 1.601 | Difference [2, 8]: 0.16

COc1ccc(CN2C3CC2CN(c2ccc(-c4cc(OCC(C)(C)O)cn5ncc(C#N)c45)cn2)C3)cn1 [Selpercatinib]
Difference [1, 12]: −0.01 | Cholesterol-free [1, 3]: 0.9224 | Complete [1, 4]: 0.9158 | Cholesterol-free media + simvastatin (0.04 μM) [2, 10]: 1.485 | Complete Media [2, 11]: 1.627 | Difference [2, 8]: 0.14

O=C(O)CSCC(=O)NC1CCSC1=O (stereo not shown) [Erdosteine]
Difference [1, 12]: 0.06 | Cholesterol-free [1, 3]: 1.459 | Complete [1, 4]: 1.516 | Cholesterol-free media + simvastatin (0.04 μM) [2, 6]: 1.196 | Complete Media [2, 7]: 1.238 | Difference [2, 8]: 0.04

CN(C)CCC=C1c2ccccc2C=Cc2ccccc21 [Cyclobenzaprine (hydrochloride)]
Cholesterol-free [1, 3]: 1.08 | Complete [1, 4]: 1.26 | Difference [1, 5]: 0.18 | Cholesterol-free media + simvastatin (0.04 μM) [2, 10]: 1.036 | Complete Media [2, 11]: 1.3 | Difference [2, 8]: 0.26

O=C(CCCN1CCN(c2ccccn2)CC1)c1ccc(F)cc1 [Azaperone]
Difference [1, 12]: −0.01 | Cholesterol-free [1, 3]: 0.9307 | Complete [1, 4]: 0.9163 | Cholesterol-free media + simvastatin (0.04 μM) [2, 19]: 1.007 | Complete Media [2, 20]: 0.9983 | Difference [2, 21]: −0.01

CCCN[C@H]1CCc2nc(N)sc2C1 [Pramipexole (dihydrochloride hydrate)]
Difference [1, 12]: 0.05 | Cholesterol-free [1, 3]: 0.8255 | Complete [1, 4]: 0.873 | Cholesterol-free media + simvastatin (0.04 μM) [2, 10]: 1.173 | Complete Media [2, 11]: 1.35 | Difference [2, 8]: 0.18

Cc1[nH]c(/C=C2\C(=O)Nc3ccc(F)cc32)c(C)c1C(=O)NCCN1CCCC1 [Toceranib]
Cholesterol-free [1, 3]: 0.7492 | Complete [1, 4]: 1.361 | Difference [1, 5]: 0.61 | Cholesterol-free media + simvastatin (0.04 μM) [2, 6]: 0.9375 | Complete Media [2, 7]: 1.022 | Difference [2, 8]: 0.08

COc1cc2nc(N(C)CCCNC(=O)C3CCCO3)nc(N)c2cc1OC (stereo not shown) [Alfuzosin (hydrochloride)]
Difference [1, 12]: −0.22 | Cholesterol-free [1, 9]: 1.203 | Complete ([1]; NCI-H292 cells, complete media): 0.9827 | Cholesterol-free media + simvastatin (0.04 μM) [2, 10]: 0.7758 | Complete Media [2, 11]: 1.007 | Difference [2, 8]: 0.23

Sulconazole (nitrate)
Difference [1, 12]: 0.04 | Cholesterol-free [1, 3]: 0.9221 | Complete [1, 4]: 0.9667 | Cholesterol-free media + simvastatin (0.04 μM) [2, 10]: 0.3022 | Complete Media [2, 11]: 0.9753 | Difference [2, 8]: 0.67

Tolterodine (tartrate)
Cholesterol-free [1]: 1.873 | Complete [1]: 0.9529 | Difference [1]: −0.92 | Cholesterol-free media + simvastatin (0.04 μM) [2]: 1.183 | Complete Media [2]: 1.127 | Difference [2]: −0.06

CC(C)OC(=O)C(C(=O)OC(C)C)=C1SC=CS1 [Malotilate]
Difference [1, 12]: −0.31 | Cholesterol-free [1, 9]: 1.163 | Complete ([1]; NCI-H292 cells, complete media): 0.8568 | Cholesterol-free media + simvastatin (0.04 μM) [2, 13]: 1.172 | Complete Media [2, 14]: 0.8557 | Difference [2, 15]: −0.32
